In patent US20090253669A1, “Substituted Sulfonamide Compounds” (GRUENENTHAL GmbH, priority 2008, published 2009):

What was measured:
[1] = target: T1, human B1R receptor (hB1R) (Homo sapiens, UniProt P46663); test: FLIPR Ca2+ assay on hB1R-transfected CHO K1 cells, antagonistic action; format: cell-based; settings: CHO-K1, 10 μM test substance; agonist Lys-Des-Arg9-bradykinin 0.5 nM; % of maximum achievable inhibition; read-out: hB1R [10 μM] % inhibition
T1 construct: host or cells: CHO K1 cells
T1 sequence (P46663 1-353): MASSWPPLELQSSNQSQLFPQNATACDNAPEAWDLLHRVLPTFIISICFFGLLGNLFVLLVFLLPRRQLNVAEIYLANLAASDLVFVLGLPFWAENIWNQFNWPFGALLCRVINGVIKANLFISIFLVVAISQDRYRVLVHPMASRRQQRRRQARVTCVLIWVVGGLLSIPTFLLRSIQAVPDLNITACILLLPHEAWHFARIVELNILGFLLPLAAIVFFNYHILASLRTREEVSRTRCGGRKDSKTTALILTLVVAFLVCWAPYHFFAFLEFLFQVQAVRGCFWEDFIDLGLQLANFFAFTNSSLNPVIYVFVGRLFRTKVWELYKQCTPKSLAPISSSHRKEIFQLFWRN

[2] = target: T2, B1R receptor of the rat (rB1R) (Rattus norvegicus, UniProt P97583); test: FLIPR Ca2+ assay on rB1R-transfected CHO K1 cells, antagonistic action; format: cell-based; settings: CHO-K1, 10 μM test substance; agonist Des-Arg9-bradykinin 100 nM; % of maximum achievable inhibition; read-out: rB1R [10 μM] % inhibition
T2 construct: host or cells: CHO K1 cells
T2 sequence (P97583 1-337): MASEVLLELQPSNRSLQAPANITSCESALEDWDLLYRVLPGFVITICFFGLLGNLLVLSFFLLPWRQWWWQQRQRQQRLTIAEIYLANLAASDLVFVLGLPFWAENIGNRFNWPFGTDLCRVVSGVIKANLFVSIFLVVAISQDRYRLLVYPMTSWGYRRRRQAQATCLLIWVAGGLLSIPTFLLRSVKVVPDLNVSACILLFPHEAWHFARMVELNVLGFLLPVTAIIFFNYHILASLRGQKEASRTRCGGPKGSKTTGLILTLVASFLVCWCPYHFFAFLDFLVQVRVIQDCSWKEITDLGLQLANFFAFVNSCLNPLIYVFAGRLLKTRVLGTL

Row | SMILES | inhibition at 10 µM [1] | inhibition at 10 µM [2]
1 | CN1CCN(C2(CCc3ccccc3)CCC(CN(C)C(=O)COCCN(C)S(=O)(=O)c3c(Cl)cc(Cl)cc3Cl)CC2)CC1 (stereo not shown) [Compound 195, N-methyl-N-((4-(4-methylpiperazin-1-yl)-4-phenethylcyclohexyl)methyl)-2-(2-(2,4,6-trichloro-N-methylphenylsulfonamido)ethoxy)acetamide] | 100% | 28%
2 | CN(CCCC1CCC(Cc2ccccc2)(N2CCCC2)CC1)C(=O)CC(NS(=O)(=O)c1ccc2ccccc2c1)c1ccccc1 (stereo not shown) [Compound 74, N-(3-(4-benzyl-4-(pyrrolidin-1-yl)cyclohexyl)propyl)-N-methyl-3-(naphthalene-2-sulfonamido)-3-phenylpropanamide] | 102% | 99%
3 | COc1cc(C)c(S(=O)(=O)N(C)CCOCC(=O)N(C)CCCC2CCC(Cc3ccccc3)(N3CCCC3)CC2)c(C)c1 (stereo not shown) [Compound 85, N-(3-(4-benzyl-4-(pyrrolidin-1-yl)cyclohexyl)propyl)-2-(2-(4-methoxy-N,2,6-trimethylphenylsulfonamido)ethoxy)-N-methylacetamide] | 99% | 99%
4 | Cc1cc(S(=O)(=O)N2CCCCC2CCC(=O)N(C)CCC2CCC(CCc3ccccc3)(N3CCCC3)CC2)c(C)cc1Cl (stereo not shown) [Compound 131, 3-(1-(4-chloro-2,5-dimethylphenylsulfonyl)piperidin-2-yl)-N-methyl-N-(2-(4-phenethyl-4-(pyrrolidin-1-yl)cyclohexyl)ethyl)propanamide] | 99% | 47%
5 | COc1cc(C)c(S(=O)(=O)N2CCCC[C@H]2COCC(=O)N(C)CCC2CCC(c3ccccc3)(N3CCCC3)CC2)c(C)c1 (stereo partly drawn) [Compound 200, (S)-2-((1-(4-methoxy-2,6-dimethylphenylsulfonyl)piperidin-2-yl)methoxy)-N-methyl-N-(2-(4-phenyl-4-(pyrrolidin-1-yl)cyclohexyl)ethyl)acetamide] | 99% | 105%
6 | COc1cc(C)c(S(=O)(=O)N2CCCC2COCC(=O)NC2CCC(Cc3ccccc3)(N3CCCC3)CC2)c(C)c1 (stereo not shown) [Compound 151, N-(4-benzyl-4-(pyrrolidin-1-yl)cyclohexyl)-2-((1-(4-methoxy-2,6-dimethylphenylsulfonyl)pyrrolidin-2-yl)methoxy)acetamide] | 90% | 103%
7 | COc1cc(C)c(S(=O)(=O)N2CCCCC2COCC(=O)NCC2CCC(c3ccccc3)(N3CCOCC3)CC2)c(C)c1 (stereo not shown) [Compound 157, 2-((1-(4-methoxy-2,6-dimethylphenylsulfonyl)piperidin-2-yl)methoxy)-N-((4-morpholino-4-phenylcyclohexyl)methyl)acetamide] | 76% | 99%
8 | COc1cc(C)c(S(=O)(=O)N2CCCCC2COCC(=O)NC2CCC(c3ccccc3)(N3CCOCC3)CC2)c(C)c1 (stereo not shown) [Compound 158, 2-((1-(4-methoxy-2,6-dimethylphenylsulfonyl)piperidin-2-yl)methoxy)-N-(4-morpholino-4-phenylcyclohexyl)acetamide] | 87% | 99%
9 | CN(C)C1(CCc2ccccc2)CCC(NC(=O)CC2c3ccccc3CCN2S(=O)(=O)c2ccc(Cl)c(Cl)c2)CC1 (stereo not shown) [Compound 1, 2-(2-(3,4-dichlorophenylsulfonyl)-1,2,3,4-tetrahydroisoquinolin-1-yl)-N-(4-(dimethylamino)-4-phenethylcyclohexyl)acetamide] | 96% | 105%
10 | COc1cc(C)c(S(=O)(=O)N(C)CCOCC(=O)N(C)CC2CCC(CCc3ccccc3)(N3CCCC3)CC2)c(C)c1 (stereo not shown) [Compound 47, 2-(2-(4-methoxy-N,2,6-trimethylphenylsulfonamido)ethoxy)-N-methyl-N-((4-phenethyl-4-(pyrrolidin-1-yl)cyclohexyl)methyl)acetamide] | 102% | 100%
11 | O=C(CC1CCCCN1S(=O)(=O)c1cccc(C(F)(F)F)c1)N1CCC(c2ccccc2)(N2CCN(c3ccncc3)CC2)CC1 (stereo not shown) [Compound 113, 1-(4-phenyl-4-(4-(pyridin-4-yl)piperazin-1-yl)piperidin-1-yl)-2-(1-(3-(trifluoromethyl)phenylsulfonyl)piperidin-2-yl)ethanone] | 79% | 74%
12 | CN1CCN(C2(c3cccc(F)c3)CCN(C(=O)CC(NS(=O)(=O)c3ccc4ccccc4c3)c3ccccc3)CC2)CC1 (stereo not shown) [Compound 120, N-(3-(4-(3-fluorophenyl)-4-(4-methylpiperazin-1-yl)piperidin-1-yl)-3-oxo-1-phenylpropyl)naphthalene-2-sulfonamide] | 97% | 67%
13 | COc1cc(C)c(S(=O)(=O)N2CCCC2COCC(=O)NCC2CCC(Cc3ccccc3)(N3CCOCC3)CC2)c(C)c1 (stereo not shown) [Compound 169, N-((4-benzyl-4-morpholinocyclohexyl)methyl)-2-((1-(4-methoxy-2,6-dimethylphenylsulfonyl)pyrrolidin-2-yl)methoxy)acetamide] | 41% | 86%
14 | COc1cc(C)c(S(=O)(=O)N2CCCC[C@H]2COCC(=O)N(C)CCC2CCC(c3ccccc3)(N3CCC3)CC2)c(C)c1 (stereo partly drawn) [Compound 201, (S)-N-(2-(4-(azetidin-1-yl)-4-phenylcyclohexyl)ethyl)-2-((1-(4-methoxy-2,6-dimethylphenylsulfonyl)piperidin-2-yl)methoxy)-N-methylacetamide] | 100% | 97%
15 | COc1cc(C)c(S(=O)(=O)N2CCCCC2COCC(=O)N2CCC(c3ccc(F)cc3)(N3CCN(C)CC3)CC2)c(C)c1 (stereo not shown) [Compound 70, 1-(4-(4-fluorophenyl)-4-(4-methylpiperazin-1-yl)piperidin-1-yl)-2-((1-(4-methoxy-2,6-dimethylphenylsulfonyl)piperidin-2-yl)methoxy)ethanone] | 104% | 99%
16 | CN1CCN(C2(c3ccccc3)CCN(C(=O)CC(NS(=O)(=O)c3ccc4ccccc4c3)c3ccccc3)CC2)CC1 (stereo not shown) [Compound 82, N-(3-(4-(4-methylpiperazin-1-yl)-4-phenylpiperidin-1-yl)-3-oxo-1-phenylpropyl)naphthalene-2-sulfonamide] | 99% | 99%
17 | COc1cc(C)c(S(=O)(=O)N2CCCCC2COCC(=O)N(C)CCC2CCC(Cc3ccccc3)(N3CCCC3)CC2)c(C)c1 (stereo not shown) [Compound 68, N-(2-(4-benzyl-4-(pyrrolidin-1-yl)cyclohexyl)ethyl)-2-((1-(4-methoxy-2,6-dimethylphenylsulfonyl)piperidin-2-yl)methoxy)-N-methylacetamide] | 103% | 100%
18 | COc1cc(C)c(S(=O)(=O)N2CCCCC2COCC(=O)N2CCC(c3ccccc3)(N3CCN(c4ccncc4)CC3)CC2)c(C)c1 (stereo not shown) [Compound 62, 2-((1-(4-methoxy-2,6-dimethylphenylsulfonyl)piperidin-2-yl)methoxy)-1-(4-phenyl-4-(4-(pyridin-4-yl)piperazin-1-yl)piperidin-1-yl)ethanone] | 103% | 100%
19 | O=C(COC1CCCN(S(=O)(=O)c2c(Cl)cc(Cl)cc2Cl)C1)NC1CCC(c2ccccc2)(N2CCCC2)CC1 (stereo not shown) [Compound 194, N-(4-phenyl-4-(pyrrolidin-1-yl)cyclohexyl)-2-(1-(2,4,6-trichlorophenylsulfonyl)piperidin-3-yloxy)acetamide] | 96% | 33%
20 | CN(CCOCC(=O)NC1CCC(Cc2ccccc2)(N2CCCC2)CC1)S(=O)(=O)c1ccc(Cl)cc1Cl (stereo not shown) [Compound 193, N-(4-benzyl-4-(pyrrolidin-1-yl)cyclohexyl)-2-(2-(2,4-dichloro-N-methylphenylsulfonamido)ethoxy)acetamide] | 93% | 34%
21 | Cc1cc(S(=O)(=O)N2CCCCC2CCC(=O)N(C)CCC2CCC(Cc3ccccc3)(N3CCCC3)CC2)c(C)cc1Cl (stereo not shown) [Compound 117, N-(2-(4-benzyl-4-(pyrrolidin-1-yl)cyclohexyl)ethyl)-3-(1-(4-chloro-2,5-dimethylphenylsulfonyl)piperidin-2-yl)-N-methylpropanamide] | 103% | 70%
22 | COc1cc(C)c(S(=O)(=O)N2CCCCC2CCCC(=O)N2CCC(c3cccc(F)c3)(N3CCN(C)CC3)CC2)c(C)c1 (stereo not shown) [Compound 214, 1-(4-(3-Fluorophenyl)-4-(4-methylpiperazin-1-yl)piperidin-1-yl)-4-(1-(4-methoxy-2,6-dimethylphenylsulfonyl)piperidin-2-yl)butan-1-one] | 99% | 101%
23 | O=C(COCC1CCCCN1S(=O)(=O)c1c(Cl)cc(Cl)cc1Cl)NC1CCC(c2ccccc2)(N2CCCC2)CC1 (stereo not shown) [Compound 142, N-(4-phenyl-4-(pyrrolidin-1-yl)cyclohexyl)-2-((1-(2,4,6-trichlorophenylsulfonyl)piperidin-2-yl)methoxy)acetamide] | 92% | 113%
